Results published in US7977364B2, “Indazoles, benzisoxazoles and benzisothiazoles and their use as estrogenic agents” (Laboratoire Thermamex, priority 2004, dated 2011).
Read-outs that look alike come from different tables or passages of the source.

What was measured:
[1] = test system: human endometrial adenocarcinoma Ishikawa cells; assay: Estrogenic and anti-estrogenic activities in vitro: induction of alkaline phosphatase (APase) activity; type: cell-based; details: Homo sapiens, Ishikawa, 96 h; compound alone, four days; ND = not detected; read-out: Estrogenic activity EC50 (nM) ± S.E.M
Procedure: The estrogenic and anti-estrogenic potentials of new compounds were evaluated using the induction of alkaline phosphatase (APase) activity, an estrogen specific response in human endometrial adenocarcinoma Ishikawa cells (Botella J., J Steroid Biochem Molec Biol, 1995, 55: 77-84; Littlefield et al., Endocrinology, 1990, 127: 2757-2762).
Ishikawa cells were routinely grown as monolayers in Dulbecco's Modified Eagle's medium (DMEM) containing 4 mM Glutamax I and supplemented with 10% of decomplemented fetal calf serum (dFCS) and antibiotics. They were maintained in a humidified atmosphere of 5% CO2 and 95% air, at 37±0.1° C. Stocks were performed once a week to maintain continuous exponential growth.
For studies, Ishikawa cells were plated into 96-well microplates. The next day, the medium was changed to a phenol red-free DMEM containing 5% dFCS stripped of endogenous estrogens by dextran coated charcoal treatment.
At the end of the incubation period, APase activity was assayed by a method involving the hydrolysis of p-nitrophenyl phosphate to p-nitrophenol at pH 9.8 and spectrophotometric determination of the product at 405 nm.
In brief, the microplates were first rinsed twice with cold phosphate buffered solution and then placed at −80° C. for at least 15 minutes. After thawing at room temperature for 5-10 minutes, the plates were put on ice and 50 μl ice-cold solution containing 5 mM p-nitrophenyl phosphate was added to each well. The plates were warmed to room temperature to allow for the development of the enzymatic reaction (t0). After a 15 to 60 minute incubation period, the intensity of the yellow color generated by the production of p-nitrophenol was measured into each well at 405 nm using a microplate reader (Wallac, model 1420 Victor^2). […] Sigmoidal dose-response curves were plotted and EC50 (estrogenic effect) and IC50 (anti-estrogenic effect) values were calculated for each compound.

[2] = test system: human breast cancer cell line MCF-7; assay: Proliferative activity in vitro (ATP luminescence, 6 days); type: cell-based; details: Homo sapiens, MCF7, 144 h
Procedure: The proliferative effect of the compounds of the invention was evaluated on human breast cancer cell line MCF-7 by measuring the number of viable cells after 6 days of treatment.
MCF-7 cells were routinely cultured as monolayers in Dulbecco's modified Eagle's medium (DMEM) containing 4 mM Glutamax and 4.5 g/l glucose and supplemented with 5% (v/v) decomplemented fetal calf serum (dFCS) and antibiotics.
Cells were plated at 2.10^6 cells/75 cm^2 flasks and incubated at 37° C. in a humidified atmosphere containing 5% CO2. They were passaged once weekly to maintain continuous exponential growth. Forty eight hours before the start of an experiment, near-confluent cells were changed to a phenol red free DMEM containing 5% steroid-stripped dFCS by dextran coated charcoal treatment (DCC-DMEM). On the day of the experiment, cells were harvested by brief exposure to trypsin and plated in DCC-DMEM in 96-well microplates at a density of 4.10^3 cells/well. The next day, the medium was renewed and test compounds, diluted appropriately in estrogen-free DMEM, were added and incubated for six days. […] At the end of the incubation period, cell proliferation was evaluated by quantitation of the cellular ATP content which signals the presence of metabolically active cells.
The assay, based on the ATP-dependent luciferase reaction, enables generation of a luminescent signal proportional to the amount of ATP present. As there is a linear relationship between the amount of ATP and the number of viable cells present in culture, the luminescent signal allowed to precisely evaluate cell proliferation (Crouch, S. P. M. et al. J. Immunol. Meth., 1993, 160, 81; Kangas, L. et al. Med. Biol. 1984, 62, 338; Petty, R. D. et al. J. Biolum. Chemilum. 1995, 10, 29).
In brief, the microplates were inverted to discard the culture medium and 100 μl of fresh medium was added into each well. The microplates were equilibrated at room temperature for approximately 30 minutes. 100 μl of luciferase reagent was added into each well and contents were mixed for 2 minutes to induce cell lysis. The plates were incubated at room temperature for 10 minutes to stabilize luminescence signal.
Luminescence was recorded using a microplate reader (Wallac, model 1420 Victor^2) and results were expressed as percentage of the control luminescence. Sigmoidal dose-response curves were plotted and EC50 values were calculated for each compound in order to evaluate their proliferative potency.

[3] = test system: rats; assay: Forced swimming test (antidepressant activity, immobility duration); type: in vivo, rat
Description: Antidepressant effect of estradiol was recently reported in studies using ER β KO mice model. In addition, ER β localization in dorsal raphe nucleus area in rat has been described. The gold standard test for antidepressant potency of compound consist in the forced swimming test, in this experiment antidepressants could be distinguished from psychostimulants which decreased immobility at doses which increased general activity. In order to investigate the putative antidepressant potency of the compounds reported here, the forced swimming test was performed according to the following design. The animals were housed six per cage under standard colony conditions, with a 12 h light/dark cycle and ad libitum food and water. They were allowed to acclimatize to the colony for at least 7 days prior to any experimentation. For subcutaneous administration, the compound of Example 23 was dissolved in olive oil and diluted to the desired concentration on the day of administration. For positive control, intraperitoneal (i.p.) injection of desipramine was done. Desipramine was dissolved in double-distilled water (10 mg/kg). The experiments were conducted 30 min after the positive control drug treatment (only for desipramine treatment). Other compounds, ie: estradiol and the compound of Example 23 were daily injected subcutaneously in rats, during a 7 days period. Acquisition were performed on day 8 (24 h after the last administration of items) and day 9 (48 h after estradiol or compound 23 administration), respectively. Data acquired 24 hours after the last administration consisted in the “naïve animal group”, these animals had never been previously tested in the device. Data acquired 48 hours after a last administration of compounds consisted in “trained animal group”.
On the 8th, the forced swim test was performed. This study was carried out in rats according to the methods described by Porsolt (Eur. J. Pharm., 1978). Briefly, rats were placed individually in glass cylinders (height: 40 cm, diameter: 18 cm) containing 25 cm of water at 25° C. Ten minutes later, rats were removed and dried before being returned to their home cages. The animals were replaced in the cylinders 24 h later, and the procedure was repeated, and a 10-min observation period was recorded.

[4] = test system: Prepubescent female rats; assay: Estrogenic / uterotrophic activity in vivo (uterus wet weight); design: species or system rat; details: Rattus norvegicus, po, 72 h, orally 3 mg/rat/day for 3 days, read-out: % stimulation vs vehicle (uterus weight)
Procedure: Prepubescent female rats were orally treated at 3 mg/rat/day for 3 days. On the day following the last treatment, uteri were removed and wet weights were recorded.
The results are expressed as % of stimulation of uterus weight in comparison with vehicles. […]
Prepubescent female rats were orally treated with 0.3; 1; 3 or 10 mg/rat/day for 3 days. On the day following the last treatment, uteri were removed and wet weights were recorded.

[5] = test system: ovariectomized rats; assay: Hot flush model in vivo: tail skin temperature, uteri and body weight; details: 3 mg/rat/day

SMILES | EC50 [1] | EC50 ([2]; read-out: Cell proliferation EC50 (nM) ± S.E.M) | activity at 1 µM ([2]; MCF-7, 10^−6 M, six days, read-out: Effect at 10^−6 M (% of control)) | activity at 0.01 µM ([2]; MCF-7, 10^−8 M, six days, read-out: Effect at 10^−8 M (% of control)) | immobility duration, Naïve animals ([3]; 0.007 mg/rat/day s.c. 7 days, 24 h after last administration, 10 minutes test) | immobility duration, Trained animals ([3]; 0.007 mg/rat/day s.c. 7 days, 48 h after last administration, 10 minutes test) | antidepressor potency ([3]; 24 h and 48 h after administration, in words) | change in vivo at 3 mg ([4]; Table 4) | change in vivo at 3 mg ([4]; Table 5) | TST Variation day 1 vs day 0 [5] | TST Variation day 4 vs day 0 [5] | TST Variation day 7 vs day 0 [5] | Body weights (% increase vs vehicle) ([5]; after one week treatment) | Uteri weight (% increase vs vehicle) ([5]; after one week treatment) | immobility duration, Trained animals ([3]; dosage 30 (mg/rat/day) as in table, i.p., 30 min before test, 10 minutes test)
C[C@]12CC[C@@H]3c4ccc(O)cc4CC[C@H]3[C@@H]1CC[C@@H]2O [Example E2, 17β-estradiol, reference compound] | 0.1 ± 0.05 nM | 0.01 nM | 205% | 212% | 22.5 ± 7.1 s | 79.2 ± 23.0 s | confirmation of the antidepressor potency | 526% | 333% | −4.8 C. ° | −3.5 C. ° | −5.6 C. ° | −10% | 273% | 
CNCCCN1c2ccccc2CCc2ccccc21 [desipramine, reference compound] |  |  |  |  |  |  |  |  |  |  |  |  |  |  | 2.6 ± 1.5 s
